Among the data in US20150322038A1, “PYRAZINE DERIVATIVES AND THEIR USE IN THE TREATMENT OF NEUROLOGICAL DISORDERS” (NOVARTIS AG, priority 2009, published 2015) are IC50 values, retold here.

The target of one test is human BACE-1 (Homo sapiens, UniProt P56817). Kind of test: Test 1: Inhibition of human BACE-1. Type of test: biochemical. To be noted: recombinant BACE-1, pH 4.5, fluorescence-quenched APP-derived peptide substrate. How it is done: Test 1: Inhibition of Human BACE-1
IC50 values are calculated from percentage of inhibition of BACE-1 activity as a function of the test compound concentration.

Test [1] deals with cellular release of amyloid peptide 1-40. The test can be described thus: Test 4: Inhibition of cellular release of amyloid peptide 1-40. In kind it is cell-based. To be noted: Cricetulus griseus, Chinese hamster ovary cells transfected with the gene for amyloid precursor protein, 24 hours with compound, amyloid peptide 1-40 in supernatant, read-out: Bace IC50. How it is done:
Test 4: Inhibition of Cellular Release of Amyloid Peptide 1-40
Chinese hamster ovary cells are transfected with the gene for amyloid precursor protein. The cells are plated at a density of 8000 cells/well into 96-well microtiter plates and cultivated for 24 hours in DMEM cell culture medium containing 10% FCS. The test compound is added to the cells at various concentrations, and the cells are cultivated for 24 hours in the presence of the test compound. The supernatants are collected, and the concentration of amyloid peptide 1-40 is determined using state of the art immunoassay techniques, for example sandwich ELISA, homogenous time-resolved fluorescence (HTRF) immunoassay, or electro-chemiluminescence immunoassay. The potency of the compound is calculated from the percentage of inhibition of amyloid peptide release as a function of the test compound concentration.

human BACE-1, sequence (P56817 46-457 limits assumed): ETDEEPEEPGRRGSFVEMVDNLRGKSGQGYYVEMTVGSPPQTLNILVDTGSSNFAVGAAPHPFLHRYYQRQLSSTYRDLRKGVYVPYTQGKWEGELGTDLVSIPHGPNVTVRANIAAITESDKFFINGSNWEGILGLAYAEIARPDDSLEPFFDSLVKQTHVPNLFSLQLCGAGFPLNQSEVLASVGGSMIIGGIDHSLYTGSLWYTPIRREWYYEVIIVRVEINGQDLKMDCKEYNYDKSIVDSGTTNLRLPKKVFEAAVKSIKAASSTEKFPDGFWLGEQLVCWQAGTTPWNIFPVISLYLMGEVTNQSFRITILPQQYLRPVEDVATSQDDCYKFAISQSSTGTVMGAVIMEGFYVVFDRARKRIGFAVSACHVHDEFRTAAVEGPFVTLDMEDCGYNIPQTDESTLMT

Usually IC50 stands for the concentration that inhibits the measured activity by half. Consider `COC(=O)N1CC(N)=NC(c2cc(NC(=O)c3ccc(Br)cn3)ccc2F)(C(F)F)C1` (stereo not drawn) [Example 19, 5-Amino-3-{5-[(5-bromo-pyridine-2-carbonyl)-amino]-2-fluoro-phenyl}-3-difluoromethyl-3,6-dihydro-2H-pyrazine-1-carboxylic acid methyl ester], for which the half-maximal inhibitory concentration (IC50) on human BACE-1 was 22 nM; in test [1] it was 15 nM.

Consider `COC(=O)N1CC(N)=NC(c2cc(NC(=O)c3ccc(C#N)cn3)ccc2F)(C(F)F)C1` (stereo not drawn) [Example 20, 5-Amino-3-{5-[(5-cyano-pyridine-2-carbonyl)-amino]-2-fluoro-phenyl}-3-difluoromethyl-3,6-dihydro-2H-pyrazine-1-carboxylic acid methyl ester], for which the 50% inhibitory concentration (IC50) came out at 52 nM at human BACE-1 and 57 nM in test [1].

Turning to `CC(=O)N1CC(N)=NC(c2cc(NC(=O)c3ncc(Br)cc3C)ccc2F)(C(F)F)C1` (stereo not drawn) [Example 21, 5-Bromo-3-methyl-pyridine-2-carboxylic acid [3-(4-acetyl-6-amino-2-difluoromethyl-2,3,4,5-tetrahydro-pyrazin-2-yl)-4-fluoro-phenyl]-amide], the IC50 on human BACE-1 is 9 nM; in test [1], 31 nM.

As to `Cc1cc(Br)cnc1C(=O)Nc1ccc(F)c(C2(C(F)F)CN(C(=O)OCC(Cl)Cl)CC(N)=N2)c1` (stereo not drawn) [Example 22, 5-Amino-3-{5-[(5-bromo-3-methyl-pyridine-2-carbonyl)-amino]-2-fluoro-phenyl}-3-difluoromethyl-3,6-dihydro-2H-pyrazine-1-carboxylic acid 2,2-dichloro-ethyl ester], the IC50 on human BACE-1 stood at 5 nM; in test [1], 21 nM.

Take `COCC(=O)N1CC(N)=NC(c2cc(NC(=O)c3ncc(Br)cc3C)ccc2F)(C(F)F)C1` (stereo not drawn) [Example 23, 5-Bromo-3-methyl-pyridine-2-carboxylic acid {3-[6-amino-2-difluoromethyl-4-(2-methoxy-acetyl)-2,3,4,5-tetrahydro-pyrazin-2-yl]-4-fluoro-phenyl}-amide]: the IC50 worked out at 7 nM on human BACE-1 and 34 nM in test [1].

For the compound `Cc1cc(Br)cnc1C(=O)Nc1ccc(F)c(C2(C(F)F)CN(C(=O)C3CC3)CC(N)=N2)c1` (stereo not drawn) [Example 24, 5-Bromo-3-methyl-pyridine-2-carboxylic acid [3-(6-amino-4-cyclopropanecarbonyl-2-difluoromethyl-2,3,4,5-tetrahydro-pyrazin-2-yl)-4-fluoro-phenyl]-amide], the figures for the IC50 (on human BACE-1; in test [1]) were 11 nM and 28 nM, respectively.

As for `Cc1cc(Br)cnc1C(=O)Nc1ccc(F)c(C2(C(F)F)CNCC(N)=N2)c1` (stereo not drawn) [Example 25, 5-Bromo-3-methyl-pyridine-2-carboxylic acid [3-(6-amino-2-difluoromethyl-2,3,4,5-tetrahydro-pyrazin-2-yl)-4-fluoro-phenyl]-amide], the half-inhibitory concentration (IC50) at human BACE-1 came to 28 nM; in test [1] it was 10 nM.

Take `CC(=O)N1CC(N)=NC(c2cc(NC(=O)c3ncc(OC(F)F)cc3C)ccc2F)(C(F)F)C1` (stereo not drawn) [Example 26, 5-Difluoromethoxy-3-methyl-pyridine-2-carboxylic acid [3-(4-acetyl-6-amino-2-difluoromethyl-2,3,4,5-tetrahydro-pyrazin-2-yl)-4-fluoro-phenyl]-amide]: the IC50 at human BACE-1 came to 23 nM; in test [1] it was 44 nM.

For the compound `NC1=N[C@@](c2cc(NC(=O)c3ncc(=O)[nH]c3N)ccc2F)(C(F)F)CNC1` [Example 29, 3-Amino-5-oxo-4,5-dihydro-pyrazine-2-carboxylic acid [3-((R)-6-amino-2-difluoromethyl-2,3,4,5-tetrahydro-pyrazin-2-yl)-4-fluoro-phenyl]-amide], the half-inhibitory concentration (IC50) was 220 nM on human BACE-1 and 860 nM in test [1].
